In one data set the test system is Rattus norvegicus. Briefly: Volume of distribution at steady state in male Sprague-Dawley rat at 10 mg/kg, po. The following applies: in vivo. It counts as ADME, organism-based.
A further data set addresses Dipeptidyl peptidase 9 (Homo sapiens, UniProt Q86TI2). Briefly: Inhibition of human recombinant DPP9 using H-Gly-Pro-AMC substrate after 10 mins by fluorescence assay.
Data set [1] is described as follows: AUC (0 to infinity) in male Sprague-Dawley rat at 10 mg/kg, po. The format is ADME, organism-based. More on the design: dose 10 mg/kg, route oral, time infinity. The following applies: in vivo.
The nature of data set [2]: AUC (0 to infinity) in male Sprague-Dawley rat at 5 mg/kg, iv. It counts as ADME, organism-based. Also noted: dose 5 mg/kg, time infinity, route intravenous. Particulars: in vivo.
Data set [3] in a line: Volume of distribution at steady state in male Sprague-Dawley rat at 5 mg/kg, iv. The format is ADME, organism-based. The following applies: in vivo, read-out: Vdss.
The subject of data set [4] is Mus musculus. Briefly: Anti-diabetic effect in ICR mouse assessed as plasma glucose lowering effect at 10 mg/kg, po treated 1 hr before 2.5 g/kg, po glucose load by Oral glucose tolerance test relative to control.
Data set [5] is described as follows: Elimination half life in rat liver microsomes. It counts as ADME. The following applies: read-out: beta t1/2.
Data set [6] can be described thus: Cmax in male Sprague-Dawley rat at 5 mg/kg, iv. It counts as ADME, organism-based. More on the design: dose 5 mg/kg, route intravenous. Particulars: in vivo.
Data set [7] can be described thus: Plasma clearance in male Sprague-Dawley rat at 10 mg/kg, po. The format is ADME, organism-based.
Data set [8] can be described thus: Plasma clearance in male Sprague-Dawley rat at 5 mg/kg, iv. The format is ADME, organism-based.
For data set [9], the target named is Voltage-gated inwardly rectifying potassium channel KCNH2 (Homo sapiens, UniProt Q12809). In words: Inhibition of human ERG channel.
Chain of Voltage-gated inwardly rectifying potassium channel KCNH2 (Q12809 whole entry): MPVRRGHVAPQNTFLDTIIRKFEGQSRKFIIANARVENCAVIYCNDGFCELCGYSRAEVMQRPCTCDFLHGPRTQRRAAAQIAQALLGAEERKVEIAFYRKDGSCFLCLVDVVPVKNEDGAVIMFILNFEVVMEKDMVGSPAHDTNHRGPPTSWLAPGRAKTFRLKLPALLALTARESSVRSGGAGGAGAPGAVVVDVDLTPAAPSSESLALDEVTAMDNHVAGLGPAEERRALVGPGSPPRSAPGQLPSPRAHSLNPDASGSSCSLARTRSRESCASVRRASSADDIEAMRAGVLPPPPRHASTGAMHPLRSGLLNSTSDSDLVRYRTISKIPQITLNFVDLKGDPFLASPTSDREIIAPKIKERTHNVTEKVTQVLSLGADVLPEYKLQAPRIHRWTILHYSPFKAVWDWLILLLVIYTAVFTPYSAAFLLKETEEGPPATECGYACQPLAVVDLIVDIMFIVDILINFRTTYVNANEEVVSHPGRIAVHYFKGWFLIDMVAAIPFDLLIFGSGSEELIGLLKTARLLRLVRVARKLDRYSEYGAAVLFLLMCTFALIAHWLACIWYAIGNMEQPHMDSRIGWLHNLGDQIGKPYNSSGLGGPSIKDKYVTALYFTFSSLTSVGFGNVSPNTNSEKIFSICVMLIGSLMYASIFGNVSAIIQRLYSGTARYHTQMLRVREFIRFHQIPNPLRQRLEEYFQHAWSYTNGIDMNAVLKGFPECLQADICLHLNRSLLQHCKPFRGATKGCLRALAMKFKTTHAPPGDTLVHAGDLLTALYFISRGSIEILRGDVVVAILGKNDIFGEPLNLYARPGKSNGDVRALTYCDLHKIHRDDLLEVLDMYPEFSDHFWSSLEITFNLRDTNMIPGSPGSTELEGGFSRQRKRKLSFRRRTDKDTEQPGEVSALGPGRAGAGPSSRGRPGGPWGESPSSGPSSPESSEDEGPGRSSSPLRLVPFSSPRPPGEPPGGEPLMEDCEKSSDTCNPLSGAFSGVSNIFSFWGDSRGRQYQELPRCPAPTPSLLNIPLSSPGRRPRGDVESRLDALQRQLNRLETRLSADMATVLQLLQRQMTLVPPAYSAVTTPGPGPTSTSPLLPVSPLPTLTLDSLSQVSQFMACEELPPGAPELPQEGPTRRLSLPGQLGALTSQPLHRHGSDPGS
A short description of data set [10]: Elimination half life in male Sprague-Dawley rat at 5 mg/kg, iv. The format is ADME, organism-based. The following applies: in vivo, read-out: beta t1/2 (converted).
Data set [11] is described as follows: Tmax in male Sprague-Dawley rat at 10 mg/kg, po. It counts as ADME, organism-based. The following applies: in vivo.
Data set [12] relates to Mus musculus. Briefly: Anti-diabetic effect in ICR mouse assessed as plasma glucose lowering effect at 10 mg/kg, po treated 8 hrs before 2.5 g/kg, po glucose load measured after 8 hrs by Oral glucose tolerance test relative to control.
For the next data set, the target named is Dipeptidyl peptidase 8 (Homo sapiens, UniProt Q6V1X1). Briefly: Inhibition of human recombinant DPP8 using H-Gly-Pro-AMC substrate after 10 mins by fluorescence assay.
Chain of Dipeptidyl peptidase 8 (Q6V1X1 whole entry): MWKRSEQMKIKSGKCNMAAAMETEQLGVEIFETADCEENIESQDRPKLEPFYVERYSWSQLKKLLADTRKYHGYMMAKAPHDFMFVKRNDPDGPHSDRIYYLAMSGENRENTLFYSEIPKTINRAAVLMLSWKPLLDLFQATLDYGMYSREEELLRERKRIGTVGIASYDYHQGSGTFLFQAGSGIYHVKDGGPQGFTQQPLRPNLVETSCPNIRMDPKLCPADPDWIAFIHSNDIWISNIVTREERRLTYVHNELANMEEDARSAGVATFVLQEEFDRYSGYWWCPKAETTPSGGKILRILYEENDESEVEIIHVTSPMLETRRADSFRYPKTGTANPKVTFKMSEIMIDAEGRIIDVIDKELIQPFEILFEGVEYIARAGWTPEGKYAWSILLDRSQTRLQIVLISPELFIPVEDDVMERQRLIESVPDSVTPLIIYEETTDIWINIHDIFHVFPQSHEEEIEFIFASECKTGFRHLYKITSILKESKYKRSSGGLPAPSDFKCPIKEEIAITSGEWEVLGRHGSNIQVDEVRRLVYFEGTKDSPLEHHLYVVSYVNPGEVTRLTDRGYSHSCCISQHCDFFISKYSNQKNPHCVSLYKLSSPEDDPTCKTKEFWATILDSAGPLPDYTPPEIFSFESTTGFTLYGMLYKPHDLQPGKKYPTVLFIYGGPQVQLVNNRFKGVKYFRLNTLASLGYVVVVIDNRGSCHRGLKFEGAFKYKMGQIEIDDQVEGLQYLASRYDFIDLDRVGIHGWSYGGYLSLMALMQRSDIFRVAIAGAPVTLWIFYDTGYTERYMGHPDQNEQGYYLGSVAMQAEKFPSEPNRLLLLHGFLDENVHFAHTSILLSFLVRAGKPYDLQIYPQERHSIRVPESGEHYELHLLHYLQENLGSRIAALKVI
The nature of data set [13]: Elimination half life in male Sprague-Dawley rat at 10 mg/kg, po. The format is ADME, organism-based. Particulars: in vivo, read-out: beta t1/2 (converted).
Data set [14] can be described thus: Oral bioavailability in male Sprague-Dawley rat at 10 mg/kg. Particulars: in vivo. It counts as ADME, organism-based.
Data set [15] can be described thus: Cmax in male Sprague-Dawley rat at 10 mg/kg, po. The format is ADME, organism-based. More on the design: dose 10 mg/kg, route oral. Particulars: in vivo.
Data set [16] can be described thus: Metabolic stability in rat liver microsome assessed as turnover after 84 mins. The format is ADME. The following applies: liver microsomes, read-out: Drug metabolism. Background: Liver microsomes are vesicles of endoplasmic reticulum, rich in cytochrome P450 enzymes.

Molecules are shown by their SMILES. pIC50: −log10 of the molar value.

Chain of Dipeptidyl peptidase 9 (Q86TI2 whole entry): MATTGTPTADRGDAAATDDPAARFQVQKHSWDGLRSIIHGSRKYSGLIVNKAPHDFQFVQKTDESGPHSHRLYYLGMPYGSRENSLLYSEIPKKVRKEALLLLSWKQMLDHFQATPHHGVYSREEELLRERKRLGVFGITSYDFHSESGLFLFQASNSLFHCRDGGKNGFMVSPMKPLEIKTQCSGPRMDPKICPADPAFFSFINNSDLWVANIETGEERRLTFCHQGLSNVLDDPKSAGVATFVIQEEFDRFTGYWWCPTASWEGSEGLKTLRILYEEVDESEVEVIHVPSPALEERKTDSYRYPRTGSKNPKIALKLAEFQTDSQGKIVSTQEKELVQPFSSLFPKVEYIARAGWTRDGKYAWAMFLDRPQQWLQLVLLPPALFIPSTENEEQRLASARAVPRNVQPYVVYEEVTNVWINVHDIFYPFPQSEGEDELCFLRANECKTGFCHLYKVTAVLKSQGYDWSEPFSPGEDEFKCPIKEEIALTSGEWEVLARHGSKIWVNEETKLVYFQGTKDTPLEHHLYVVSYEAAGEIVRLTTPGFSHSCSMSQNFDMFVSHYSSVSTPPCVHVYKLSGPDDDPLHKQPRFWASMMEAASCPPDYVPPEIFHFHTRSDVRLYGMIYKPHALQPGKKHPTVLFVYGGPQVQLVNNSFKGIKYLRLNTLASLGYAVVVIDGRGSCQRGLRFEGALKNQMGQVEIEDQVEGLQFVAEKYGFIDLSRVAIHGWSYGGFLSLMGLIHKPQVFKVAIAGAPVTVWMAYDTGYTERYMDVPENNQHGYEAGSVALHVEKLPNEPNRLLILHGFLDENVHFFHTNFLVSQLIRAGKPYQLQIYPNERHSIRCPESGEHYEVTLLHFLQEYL

`N[C@@H](CC(=O)N1CCn2c(nnc2C(F)(F)F)C1)[C@H]1CCc2cc(F)c(F)cc21` returned a Vdss in the data set with Rattus norvegicus of 25.792 L/kg. The pIC50 (usually −log10 of the IC50, conventionally taken in molar units) on Dipeptidyl peptidase 9 is below 5.00; in data set [9] it was below 4.70; on Dipeptidyl peptidase 8, below 5.00. In addition, the total exposure AUC(0-inf) (usually the area under the concentration-time curve extrapolated to infinity) in [1] was determined as 2850 ng·h/mL; in data set [2], 2270 ng·h/mL. Also, in data set [3], the Vd came out at 14.2 L/kg. The “inhibition (INH)” value in the data set with Mus musculus [4] came out at 57%; with Mus musculus [12], 24%. For the same compound, the half-life in [5] is 5.88 h; in data set [10], 4.39 h; in [13], 5.11 h. Further, the highest concentration (Cmax) (usually the peak of the concentration-time curve) in data set [6] was determined as 1490 ng/mL; in [15], 466 ng/mL. In addition, the apparent clearance CL/F (as a rule, the apparent clearance, not corrected for the fraction that reaches the circulation) in data set [7] was 59.1 mL/min/kg. The clearance (usually the volume of plasma or blood freed of the substance per unit of time) in data set [8] was 37 mL/min/kg. For the same compound, the time to peak (Tmax) (usually the time from dosing to the highest level) in data set [11] turned out to be 0.55 h. The bioavailability – broadly, the share of a dose that reaches the circulation, judged against a reference dose that is usually intravenous – in data set [14] was found to be 61%.

For `N[C@@H](CC(=O)N1CC(=O)Nc2ccccc2C1)[C@H]1CCc2cc(F)c(F)cc21`, the metabolised at 1.4 h in data set [16] was 50%. Besides, the figures for the pIC50 (on Dipeptidyl peptidase 9; in data set [9]; at Dipeptidyl peptidase 8) were below 5.00, below 4.70 and below 5.00, respectively. Besides, the “inhibition (INH)” value was 34% with Mus musculus [4] and 35% in the data set on Mus musculus [12]. For the same compound, the half-life in data set [5] amounted to 1.4 h.

As for `N[C@@H](CC(=O)N1CC(=O)Nc2cc(F)ccc2C1)[C@H]1CCc2cc(F)c(F)cc21`, the half-life in data set [5] turned out to be 1.85 h.

Regarding `N[C@@H](CC(=O)N1CC(=O)Nc2cc(F)c(F)cc2C1)[C@H]1CCc2cc(F)c(F)cc21`, the pIC50 on Dipeptidyl peptidase 9 and at Dipeptidyl peptidase 8 was below 5.00 throughout.

Take `CN1C(=O)CN(C(=O)C[C@H](N)[C@H]2CCc3cc(F)c(F)cc32)Cc2ccccc21`: the pIC50 at Dipeptidyl peptidase 9 and at Dipeptidyl peptidase 8 was below 5.00 in each case. For the same compound, the “inhibition (INH)” value in the data set with Mus musculus [4] is given as 29%; in the data set on Mus musculus [12], 38%.

`CN1C(=O)CN(C(=O)C[C@H](N)[C@H]2CCc3cc(F)c(F)cc32)Cc2ccc(F)cc21`: the negative-log IC50 (pIC50) at Dipeptidyl peptidase 9 and at Dipeptidyl peptidase 8 was below 5.00 in each case. Besides, the “inhibition (INH)” value in the data set on Mus musculus [4] was 48%; in the data set with Mus musculus [12] it was 30%.

Consider `N[C@@H](CC(=O)N1CCn2c(nnc2C(F)(F)F)C1)Cc1cc(F)c(F)cc1F` [SITAGLIPTIN], for which the figures for the “inhibition (INH)” value in the data set with Mus musculus [4] and with Mus musculus [12] were 40% and 24%, respectively.

The values above are taken from ChEMBL document CHEMBL3580611, “Design, Synthesis, and Pharmacological Evaluation of Fused β-Homophenylalanine Derivatives as Potent DPP-4 Inhibitors” (ACS Med Chem Lett, 2015).
